Reference: patent publication US20070249670A1, “Glycogen Phosphorylase Inhibitor Compounds and Pharmaceutical Compositions Thereof” (SMITHKLINE BEECHAM CORPORATION, priority 2004, published 2007)

Biological target: T1, human liver glycogen phosphorylase a (HLGPa) (Homo sapiens, UniProt P06737)
T1 construct: creating a full-length cDNA fused at the 5′ end to codons for methionine-glycine-alanine-histidine; 6xHis tag (leader Met-Gly-Ala-His6-Gly-Gly) (N); made in house; host or cells: E. coli (bacterial expression plasmid pTXK1007LTev)
T1 sequence (P06737 2-847 limits assumed): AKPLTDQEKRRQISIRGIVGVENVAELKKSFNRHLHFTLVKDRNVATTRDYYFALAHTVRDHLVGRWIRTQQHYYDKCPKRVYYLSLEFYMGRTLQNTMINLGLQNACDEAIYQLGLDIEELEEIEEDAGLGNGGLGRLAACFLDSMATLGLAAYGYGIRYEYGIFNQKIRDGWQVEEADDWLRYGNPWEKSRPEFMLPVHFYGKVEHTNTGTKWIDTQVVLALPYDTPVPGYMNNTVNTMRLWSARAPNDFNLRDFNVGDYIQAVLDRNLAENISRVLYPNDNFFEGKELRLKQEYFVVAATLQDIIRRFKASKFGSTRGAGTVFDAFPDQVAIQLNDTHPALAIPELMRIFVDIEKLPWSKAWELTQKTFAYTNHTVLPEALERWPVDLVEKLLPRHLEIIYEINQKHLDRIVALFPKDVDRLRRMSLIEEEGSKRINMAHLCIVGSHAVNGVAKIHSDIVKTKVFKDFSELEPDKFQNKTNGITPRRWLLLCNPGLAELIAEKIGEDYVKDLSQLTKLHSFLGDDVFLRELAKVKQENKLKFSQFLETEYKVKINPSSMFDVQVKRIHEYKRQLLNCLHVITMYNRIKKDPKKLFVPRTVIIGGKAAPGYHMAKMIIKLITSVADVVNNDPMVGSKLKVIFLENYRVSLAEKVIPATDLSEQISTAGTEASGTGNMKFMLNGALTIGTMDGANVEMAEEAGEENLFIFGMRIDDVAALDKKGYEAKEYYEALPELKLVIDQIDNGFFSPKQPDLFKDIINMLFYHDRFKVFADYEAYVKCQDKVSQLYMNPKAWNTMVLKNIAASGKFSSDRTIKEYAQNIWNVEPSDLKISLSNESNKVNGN
Assay: Human liver glycogen phosphorylase a enzymatic activity assay (coupled, fluorescent resorufin readout, with and without 10 mM glucose)
Type: biochemical

[1] = human liver glycogen phosphorylase a enzymatic activity assay
[2] = human liver glycogen phosphorylase a, table does not say whether with or without 10 mM glucose

| Compound | IC50 [1] [µM] | IC50 [2] [µM] |
| --- | --- | --- |
| Cc1cc(CC2CC2)cc(C)c1NC(=O)Nc1cc(-c2ccc(F)c(F)c2)ccc1C(=O)N[C@H](C(=O)O)[C@@H](C)OC(C)(C)C [Example 483, N-({3-[({[4-(cyclopropylmethyl)-2,6-dimethylphenyl]amino}carbonyl)amino]-3′,4′-difluoro-4-biphenylyl}carbonyl)-O-(1,1-dimethylethyl)-L-threonine] | 0.001 | – |
| O=C(O)C[C@H](NC(=O)c1cc2ccccc2cc1NC(=O)Nc1ccccc1Cl)C(=O)O [Example 9, N-[3-({[(2-chlorophenyl)amino]carbonyl}amino)-2-naphthoyl]-L-aspartic acid] | 2.78 | – |
| COc1ccc(-c2cc(NC(=O)Nc3c(C)cc(C)cc3C)c(C(=O)O)s2)cc1 [Example 438, 5-[4-(methyloxy)phenyl]-3-({[(2,4,6-trimethylphenyl)amino]carbonyl}amino)-2-thiophenecarboxylic acid] | 0.33 | – |
| Cc1cc(C)c(NC(=O)Nc2cc3ccccc3cc2C(=O)NC2(C(=O)O)CCC(NCc3ccccc3)CC2)c(C)c1 (stereo not drawn) [Example 294, 4-[(phenylmethyl)amino]-1-({[3-({[(2,4,6-trimethylphenyl)amino]carbonyl}amino)-2-naphthalenyl]carbonyl}amino)cyclohexanecarboxylic acid] | – | 2.53 |
| O=C(Nc1sc(-c2ccc(OC(F)(F)F)cc2)cc1C(=O)N[C@H](C(=O)O)C1CCCCC1)Nc1c(Cl)cc(OC(F)(F)F)cc1Cl [Example 429, (2S)-cyclohexyl{[(2-{[({2,6-dichloro-4-[(trifluoromethyl)oxy]phenyl}amino)carbonyl]amino}-5-{4-[(trifluoromethyl)oxy]phenyl}-3-thienyl)carbonyl]amino}ethanoic acid] | 0.096 | – |
| Cn1cc(-c2cc(C(=O)O)c(NC(=O)Nc3c(Cl)cccc3Cl)s2)cn1 [Example 422, 2-({[(2,6-dichlorophenyl)amino]carbonyl}amino)-5-(1-methyl-1H-pyrazol-4-yl)-3-thiophenecarboxylic acid] | 6.34 | – |
| CCc1cccc(CC)c1NC(=O)Nc1cc(Cl)ccc1C(=O)N[C@H](Cc1ccccc1F)C(=O)O [Example 121, N-[4-chloro-2-({[(2,6-diethylphenyl)amino]carbonyl}amino)benzoyl]-2-fluoro-D-phenylalanine] | 3.44 | – |
| Cc1cc(C)c(NC(=O)Nc2cc3ccccc3nc2C(=O)NC2(C(=O)O)CCCCCCC2)c(C)c1 [Example 307, 1-({[3-({[(2,4,6-trimethylphenyl)amino]carbonyl}amino)-2-quinolinyl]carbonyl}amino)cyclooctanecarboxylic acid] | – | 0.002 |
| COc1ccc(-c2cc(NC(=O)Nc3c(C)cc(C)cc3C)c(C(=O)N[C@@H](CC3CCCCC3)C(=O)O)s2)cc1 [Example 444, 3-cyclohexyl-N-{[5-[4-(methyloxy)phenyl]-3-({[(2,4,6-trimethylphenyl)amino]carbonyl}amino)-2-thienyl]carbonyl}-L-alanine] | 0.11 | – |
| COc1ccc(-c2ccc(C(=O)N[C@@H](CC(N)=O)C(=O)O)c(NC(=O)Nc3c(C)cc(C)cc3C)c2)cc1 [Example 378, N^2-{[4′-(methyloxy)-3-({[(2,4,6-trimethylphenyl)amino]carbonyl}amino)-4-biphenylyl]carbonyl}-L-asparagine] | – | 0.1 |
| O=C(Nc1ccc(-c2ccccc2)cc1)Nc1cc2ccccc2cc1C(=O)NC1(C(=O)O)CCCCC1 [Example 513, 1-{[(3-{[(4-biphenylylamino)carbonyl]amino}-2-naphthalenyl)carbonyl]amino}cyclohexanecarboxylic acid] | 7.43 | – |
| COC(=O)[C@@H](NC(=O)c1cc(C(C)C)sc1NC(=O)Nc1c(Cl)cccc1Cl)C1CCCCC1 [Example 395, methyl(2S)-cyclohexyl({[2-({[(2,6-dichlorophenyl)amino]carbonyl}amino)-5-(1-methylethyl)-3-thienyl]carbonyl}amino)ethanoate] | 4.49 | – |
| COC(=O)[C@@H](NC(=O)c1cc(-c2ccccc2)sc1NC(=O)Nc1c(Cl)cc(Cl)cc1Cl)C1CCCCC1 [Example 392, methyl(2S)-cyclohexyl({[5-phenyl-2-({[(2,4,6-trichlorophenyl)amino]carbonyl}amino)-3-thienyl]carbonyl}amino)ethanoate] | – | 1.32 |
| COc1ccc(-c2cnc(C(=O)NC3(C(=O)O)CCCCCC3)c(NC(=O)Nc3c(C)cc(C)cc3C)c2)cc1 [Example 325, 1-({[5-[4-(methyloxy)phenyl]-3-({[(2,4,6-trimethylphenyl)amino]carbonyl}amino)-2-pyridinyl]carbonyl}amino)cycloheptanecarboxylic acid] | – | 0.031 |
| COc1ccc(-c2cnc(C(=O)N[C@H](C(=O)O)[C@@H](C)OC(C)(C)C)c(NC(=O)Nc3c(C)cc(C)cc3C)c2)cc1 [Example 323, O-(1,1-dimethylethyl)-N-{[5-[4-(methyloxy)phenyl]-3-({[(2,4,6-trimethylphenyl)amino]carbonyl}amino)-2-pyridinyl]carbonyl}-L-threonine] | – | 0.17 |
| Cc1cc(C)c(NC(=O)Nc2cc3ccccc3cc2C(=O)NC(C(=O)O)C2CCC(N3CCOCC3)CC2)c(C)c1 (mixture of isomers) [Example 348, (cis and trans)-[4-(4-morpholinyl)cyclohexyl]({[3-({[(2,4,6-trimethylphenyl)amino]carbonyl}amino)-2-naphthalenyl]carbonyl}amino)acetic acid] | – | 1.86 |
| Cc1cc(C)c(NC(=O)Nc2cc3ccccc3cc2C(=O)N[C@@H](COCc2ccccc2)C(=O)O)c(C)c1 [Example 509, O-(Phenylmethyl)-N-{[3-({[(2,4,6-trimethylphenyl)amino]carbonyl}amino)-2-naphthalenyl]carbonyl}-L-serine] | 0.028 | – |
| Cc1cc(C)c(NC(=O)Nc2cc(-c3ccc(CO)cc3)ccc2C(=O)N[C@H](C(=O)O)C2CCCCC2)c(C)c1 [Example 198, (2S)-Cyclohexyl({[4′-(hydroxymethyl)-3-({[(2,4,6-trimethylphenyl)amino]carbonyl}amino)-4-biphenylyl]carbonyl}amino)ethanoic acid] | 0.027 | – |
| O=C(Nc1cc2ccccc2cc1C(=O)N[C@H](C(=O)O)C1CCCCC1)Nc1c(Cl)cc(F)cc1Cl [Example 455, (2S)-cyclohexyl({[3-({[(2,6-dichloro-4-fluorophenyl)amino]carbonyl}amino)-2-naphthalenyl]carbonyl}amino)ethanoic acid] | 0.086 | – |
| O=C(Nc1c(Cl)cccc1Cl)Nc1c(C(=O)N[C@H](C(=O)O)C2CCCCC2)oc2cc(Br)ccc12 [Example 327, (2S)-({[6-Bromo-3-({[(2,6-dichlorophenyl)amino]carbonyl}amino)-1-benzofuran-2-yl]carbonyl}amino)(cyclohexyl)ethanoic acid] | – | 9.87 |
| Cc1cccc(C)c1NC(=O)Nc1cc(-c2cccs2)ccc1C(=O)N[C@H](C(=O)O)C1CCCCC1 [Example 183, (2S)-Cyclohexyl({[2-({[(2,6-dimethylphenyl)amino]carbonyl}amino)-4-(2-thienyl)phenyl]carbonyl}amino)ethanoic acid] | 0.1 | – |
| O=C(Nc1cc(Cl)ccc1C(=O)N[C@H](C(=O)O)C1CCCCC1)Nc1c(Cl)cccc1Cl [Example 156, (2S)({[4chloro2({[(2,6dichlorophenyl)amino]carbonyl}amino)phenyl]carbonyl}amino)(cyclohexyl)ethanoic acid] | 0.082 | – |
| Cc1cc(C)c(CC(=O)Nc2cc3ccccc3cc2C(=O)N[C@H](C(=O)O)[C@@H](C)OC(C)(C)C)c(C)c1 [Example 268, O-(1,1-dimethylethyl)-N-[(3-{[(2,4,6-trimethylphenyl)acetyl]amino}-2-naphthalenyl)carbonyl]-L-threonine] | – | 0.05 |
| Cc1cccc(Cl)c1NC(=O)Nc1cc(Cl)ccc1C(=O)N[C@H](C(=O)O)C1CCCCC1 [Example 172, (2S)-({[4-Chloro-2-({[(2-chloro-6-methylphenyl)amino]carbonyl}-amino)phenyl]carbonyl}amino)(cyclohexyl)ethanoic acid] | 0.18 | – |
| Cc1ccccc1CC(=O)Nc1cc2ccccc2cc1C(=O)N[C@H](C(=O)O)C1CCCCC1 [Example 7, (2S)-cyclohexyl{[(3-{[(2-methylphenyl)acetyl]amino}-2-naphthalenyl)carbonyl]amino}ethanoic acid] | 17 | – |
| CC[C@H](C)[C@H](NC(=O)c1cc2ccccc2cc1NC(=O)Nc1ccccc1Cl)C(=O)O [Example 30, N-[3-({[(2-chlorophenyl)amino]carbonyl}amino)-2-naphthoyl]-L-isoleucine] | 22.1 | – |
| Cc1cc(C)c(NC(=O)Nc2cc3ccccc3cc2C(=O)N[C@H](CC(=O)O)C(=O)O)c(C)c1 [Example 356, N-{[3-({[(2,4,6-trimethylphenyl)amino]carbonyl}amino)-2-naphthalenyl]carbonyl}-D-aspartic acid] | – | 0.1 |
